Like-named read-outs stand apart in the source and are kept apart here.
Assays:
rats [1] = assay: DART work in rats (IV injection); assay type: in vivo; conditions: for maximum tolerated i.v. dose: iv bolus
Procedure: Extrapolation was performed from the DART work that was all done in rats as an IV injection (not infusion). Infusions and injections are by definition 100% bio-available meaning it all gets in.
(§1) The oral doses were estimated based on a maximum tolerated i.v. dose of 0.4 mg/kg from the DART work in rats, but an oral bio-availability of only 29%. Thus, the maximum tolerated i.v. dose was multiplied by three (i.e., 0.4 mg/kg times 3 equals 1.2 mg/kg as the equivalent oral dose). The purpose of the two lower oral doses (both 0.8 mg/kg, therefore a total of 1.6 mg/kg) and the infusion (0.8 mg/kg over three hours) was to see if the maximum tolerated dose could be exceeded by dividing up the oral into two times 75% the max tolerated dose or as an infusion over 3 hours.

[2] = In vivo rat bone marrow micronucleus assay; set-up: species or system CD® (SD) IGS BR rat; conditions: CD (SD) IGS BR, rat, in vivo, once by oral gavage, dose range-finding study, read-out: maximum tolerated dose
Procedure: The objective of this study was to evaluate the test article, prostratin, for in vivo clastogenic activity and/or disruption of the mitotic apparatus by detecting micronuclei in polychromatic erythrocytes (PCE) in CD® (SD) IGS BR rat bone marrow.
In the dose range-finding study, the test article was dissolved in ethanol followed by dilution with 0.9% Sodium Chloride for Injection to achieve a final ethanol:saline vehicle (0.8:99.2 v/v) at the appropriate dosing concentrations. The formulations were administered once by oral gavage to three males and three females per dose level. The animals were dosed at 0.4, 0.5, 2, or 5 mg/kg and observed for up to 2 days after dosing for toxic signs and/or mortality.
Based on the results of the dose range-finding study, the maximum tolerated dose was estimated to be 2.4 mg/kg in the male animals and 2 mg/kg in the female animals. In the micronucleus assay, the test article was dissolved in ethanol followed by dilution with 0.9% Sodium Chloride for Injection to achieve a final ethanol:saline vehicle (0.8:99.2 v/v) at the appropriate dosing concentrations.
Bone marrow was extracted and at least 2000 PCEs per animal were analyzed for the frequency of micronuclei. Cytotoxicity was assessed by scoring the number of PCEs and normochromatic erythrocytes (NCEs) in at least the first 500 total erythrocytes for each animal.

PBMCs = conditions: alone or in conjunction with other activators; cited from earlier work
[3] = In vitro metabolism in rat liver microsomes; assay type: in vitro ADME
From the text: (§2) In vitro metabolism of prostratin was investigated using mouse, rat, monkey, and human liver microsomes (Gentest). […] Attempts to identify the metabolite by LC/MS/MS were unsuccessful due to the low amounts present in the reaction mixtures (FIG. 1).

[4] = Pharmacokinetic studies in mice; assay type: in vivo, CD2F1 mice
Procedure: Studies were conducted in CD2F1 mice using both the i.p. route (1.9 mg/kg) and the i.v. route (0.76 mg/kg). The vehicle was 10% DMSO: 10% Cremophor: 80%:0.9% saline for both routes. Doses used were preciously determined as maximally tolerated. Drug was detected out to 4 hr but was only quantifiable out to 3 hr post drug administration (see FIG. 5A, B). Data are presented as mean±SD where n=5. Data that were detected beyond 3 hr post drug administration are shown as “BLQ” (below the limit of quantification of the validated assay). Data were fit using 1 and 2 compartment pharmacokinetic models using ADAPT II computer program. In general the 2-compartment model provided a better fit for the data than did a 1-compartment model (Table 2). […] For the two-compartment model the situation was reversed (i.e. more variance for the model predicted PK parameters with lower residual values for the individual plasma concentration data).

rats [5] = assay: Tolerability of intravenous infusion and oral doses in rats; assay type: in vivo
Procedure: In order to find out the best route of administration and the correct concentration of prostratin, the drug was administered as an intravenous infusion over three hours as well as a single and twice oral administration to 3 groups of rats. The goal of this experiment was to find out if greater amounts of prostratin can be administered over a longer period of time. This would enable obtaining median higher concentrations in the blood for a longer period of time that would be close to effective concentration found in in vitro studies.
as §1

[6] = In vitro metabolism in human liver microsomes; assay type: in vitro ADME
From the text: as §2

rhesus macaque monkeys = assay: Preliminary pharmacokinetic study in monkeys (mortality); assay type: in vivo; conditions: intravenous bolus 0.8 mg/kg; respiratory failure shortly after injection
Procedure: During a preliminary pharmacokinetic study, rhesus macaque monkeys were administered an intravenous bolus of prostratin at 0.4 mg/kg and 0.8 mg/kg. The monkey in 0.8 mg/kg died due a respiratory failure shortly after injection. Plasma samples from these monkeys were sent to NIH and plasma concentration of prostratin was measure along with other samples at NIH using the LC/MS/MS assay.

[7] = Stability of prostratin in monkey plasma; assay type: in vitro ADME; conditions: 1 and 10 mg/ml, RT and 37° C.
Procedure: Prostratin is stable in plasma and buffer as well as in the stability formulation (see below) developed for in vivo studies in mice. Stability tests for prostratin in mouse and monkey plasma were done using two concentration (1 and 10 mg/ml) and two temperatures (Room Temperature (RT) and 37° C.). The only loss of drug occurred in mouse plasma after 24 hr incubation at 37° C. This represented only 14% decrease in parent drug peak area over this time frame. Prostratin is stable in PBS (phosphate buffer saline) at pH 2 and pH 7.

[8] = mice, IP (1.9 mg/kg), 2-compartment model
[9] = mice, IV (0.76 mg/kg), 2-compartment model
[10] = mice, i.p. 1.9 mg/kg and i.v. 0.76 mg/kg

For `CC(=O)O[C@@]12C[C@@H](C)[C@@]3(O)[C@@H](C=C(CO)C[C@]4(O)C(=O)C(C)=C[C@@H]34)[C@@H]1C2(C)C` [prostratin, 12-deoxyphorbol 13-acetate], the oral bio-availability (rats [1]) was 29%, the “maximum tolerated i.v. dose” value (rats [1]) was 0.4 mg/kg and the “maximum tolerated i.v. dose” value (rats [1]; listed as Prostratin) was “Dosages in Male Rats (MTD via iv bolus dose: 0.4 mg/kg)”. For the same molecule, the MTD ([2]; female rats) was 2 mg/kg, the MTD ([2]; male rats) was 2.4 mg/kg and the “individuals on suppressive HAART whose PBMCs showed stimulated HIV-1 production” value (PBMCs) was 4 out of 6. For the same molecule, the “metabolism (time-dependent loss of parent compound)” value [3] was “substantially less”, the clearance ([4]; CD2F1, mouse, plasma, intraperitoneal and intravenous, mice, both the i.p and i.v. routes) was 200 to 250 mL/min/kg and the half-life ([4]; CD2F1, mouse, plasma, ip, 1.9 mg/kg, mice, IP (1.9 mg/kg), 2-compartment model, read-out: T1/2 a (converted)) was 20.4 min. For the same molecule, the half-life ([4]; CD2F1, mouse, plasma, ip, 1.9 mg/kg, mice, IP (1.9 mg/kg), 2-compartment model, read-out: T1/2 b (converted)) was 12600 min, the half-life ([4]; CD2F1, mouse, plasma, ip, 1.9 mg/kg, mice, IP (1.9 mg/kg), read-out: T1/2 [1-compartment model] (converted)) was 20.4 min and the half-life ([4]; CD2F1, mouse, plasma, iv, 0.76 mg/kg, mice, IV (0.76 mg/kg), 2-compartment model, read-out: T1/2 a (converted)) was 27.6 min. It also gave a half-life ([4]; CD2F1, mouse, plasma, iv, 0.76 mg/kg, mice, IV (0.76 mg/kg), 2-compartment model, read-out: T1/2 b (converted)) of 1170 min, a half-life ([4]; CD2F1, mouse, plasma, iv, 0.76 mg/kg, mice, IV (0.76 mg/kg), read-out: T1/2 [1-compartment model] (converted)) of 31.8 min and a CLt [4, 8] of 219.2 mL/min/kg. The Vc [4, 8] was 11.03 L/kg, the CLt [4, 9] was 252.7 mL/min/kg and the Vc [4, 9] was 17.32 L/kg. The “time out to which drug was detected in plasma” value [4, 10] was 4 h, the “time out to which drug was quantifiable in plasma” value [4, 10] was 3 h and the maximally tolerated dose ([4]; mice, i.p. route) was 1.9 mg/kg. The maximally tolerated dose ([4]; mice, i.v. route) was 0.76 mg/kg, the cumulative urinary excretion ([4]; pooled samples from five mice dosed i.p. (1.9 mg/kg), up to 24 hours) was < 5 % of the administered dose and the “Results (tolerability)” value (rats [5]; female rats, 0.8 mg/kg I.V. infusion, 3 hours) was “All animals died”. For the same molecule, the “Results (tolerability)” value (rats [5]; female rats, 1.2 mg/kg, one oral dose) was 2 out of 3 animals died, the “Results (tolerability)” value (rats [5]; female rats, 1.8 mg/kg first oral dose followed by 1.0 mg/kg after 4 hours) was 2 died after first dose, and the “Results (tolerability)” value (rats [5]; male rats, 1.8 mg/kg, two oral doses 4 hours apart) was “All animals are alive”. The “Results (tolerability)” value (rats [5]; male rats, 2.4 mg/kg, one oral dose) was “All animals are alive”, the “metabolism (time-dependent loss of parent compound)” value [6] was “substantially less” and the mortality (rhesus macaque monkeys) was “died”. The stability in plasma [7] was “stable”.
